In patent US20250049817A1, “JAK INHIBITOR WITH A VITAMIN D ANALOG FOR TREATMENT OF SKIN DISEASES” (INCYTE CORPORATION, priority 2020, published 2025):
pIC50: −log10 of the molar value.

Experiments:
[1] = tested on: human JAK1 (a.a. 837-1142); assay: In vitro JAK kinase assay (HTRF), JAK1; format: biochemical; conditions: JAK2/JAK1 IC50 ratio, 1 mM ATP
[2] = biological target: human JAK1 (a.a. 837-1142) (Homo sapiens, UniProt P23458); assay: In vitro JAK kinase assay (HTRF), JAK1; format: biochemical; conditions: 1 mM ATP

Row | Structure (SMILES) | JAK2/JAK1 [1] | pIC50 [2]
1 | N#CCC(C1CCN(c2cccc(Cl)n2)C1)n1cc(-c2ncnc3[nH]ccc23)cn1 (single isomer, unassigned) [Compound 6, 3-[1-(6-chloropyridin-2-yl)pyrrolidin-3-yl]-3-[4-(7H-pyrrolo[2,3-d]pyrimidin-4-yl)-1H-pyrazol-1-yl]propanenitrile] | >10 | > 8.00
2 | N#CCC1(n2cc(-c3ncnc4[nH]ccc34)cn2)CN(C2CCN(C(=O)c3ccnc(C(F)(F)F)c3F)CC2)C1 [Compound 1, {1-{1-[3-Fluoro-2-(trifluoromethyl)isonicotinoyl]piperidin-4-yl}-3-[4-(7H-pyrrolo [2,3-d]pyrimidin-4-yl)-1H-pyrazol-1-yl]azetidin-3-yl}acetonitrile] | >10 | > 8.00
3 | N#CCC1(n2cc(-c3ncnc4[nH]ccc34)cn2)CN(C2CCN(C(=O)Nc3ccc(F)cc3C(F)(F)F)CC2)C1 [Compound 2, 4-{3-(Cyanomethyl)-3-[4-(7H-pyrrolo[2,3-d]pyrimidin-4-yl)-1H-pyrazol-1-yl]azetidin-1-yl}-N-[4-fluoro-2-(trifluoromethyl)phenyl] piperidine-1-carboxamide] | >10 | > 8.00
4 | N#CCC1(n2cc(-c3ncnc4[nH]ccc34)cn2)CN(C2CCN(C(=O)c3ccnc(C(F)(F)F)n3)CC2)C1 [Compound 3, [3-[4-(7H-pyrrolo[2,3-d]pyrimidin-4-yl)-1H-pyrazol-1-yl]-1-(1-{[2-(trifluoromethyl)pyrimidin-4-yl]carbonyl}piperidin-4-yl)azetidin-3-yl]acetonitrile] | >10 | > 8.00
5 | C[C@@H](O)c1nc2cnc3ccsc3c2n1[C@H]1CC[C@H](CC#N)OC1 [Compound 5, ((2R,5S)-5-{2-[(1R)-1-hydroxyethyl]-1H-imidazo[4,5-d]thieno[3,2-b]pyridin-1-yl}tetrahydro-2H-pyran-2-yl)acetonitrile] | >10 | > 7.00
6 | N#CCC(C1CCN(c2nc3cccnc3o2)C1)n1cc(-c2ncnc3[nH]ccc23)cn1 (stereo not shown) [Compound 7, 3-(1-[1,3]oxazolo[5,4-b]pyridin-2-ylpyrrolidin-3-yl)-3-[4-(7H-pyrrolo[2,3-d]pyrimidin-4-yl)-1H-pyrazol-1-yl]propanenitrile] | >10 | > 8.00
7 | N#CCC(CN1CCN(C(=O)c2ccc(C#N)cc2F)CC1)n1cc(-c2ncnc3[nH]ccc23)cn1 (stereo not shown) [Compound 8, 4-[(4-{3-cyano-2-[4-(7H-pyrrolo[2,3-d]pyrimidin-4-yl)-1H-pyrazol-1-yl]propyl}piperazin-1-yl)carbonyl]-3-fluorobenzonitrile] | >10 | > 8.00
8 | N#CCC(CN1CCN(C(=O)c2ccc(C#N)cc2F)CC1)n1ccc(-c2ncnc3[nH]ccc23)c1 (stereo not shown) [Compound 9, 4-[(4-{3-cyano-2-[3-(7H-pyrrolo[2,3-d]pyrimidin-4-yl)-1H-pyrrol-1-yl]propyl}piperazin-1-yl)carbonyl]-3-fluorobenzonitrile] | >10 | > 8.00
9 | N#CC[C@]1(n2cc(-c3ncnc4[nH]ccc34)cn2)C[C@H](N2CCN(C(=O)c3ccnc(C(F)(F)F)n3)CC2)C1 [Compound 10, [trans-1-[4-(7H-pyrrolo[2,3-d]pyrimidin-4-yl)-1H-pyrazol-1-yl]-3-(4-{[2-(trifluoromethyl)pyrimidin-4-yl]carbonyl}piperazin-1-yl)cyclobutyl]acetonitrile] | >10 | > 8.00
10 | N#CC[C@]1(n2cc(-c3ncnc4[nH]ccc34)cn2)C[C@H](N2CCC(Oc3cc(CN4CC(O)C4)cc(C(F)(F)F)n3)CC2)C1 [Compound 11, {trans-3-(4-{[4-[(3-hydroxyazetidin-1-yl)methyl]-6-(trifluoromethyl)pyridin-2-yl]oxy}piperidin-1-yl)-1-[4-(7H-pyrrolo[2,3-d]pyrimidin-4-yl)-1H-pyrazo1-1-yl]cyclobutyl}acetonitrile] | >10 | > 8.00
11 | N#CC[C@]1(n2cc(-c3ncnc4[nH]ccc34)cn2)C[C@H](N2CCC(Oc3cc(CN4CCC[C@H]4CO)cc(C(F)(F)F)n3)CC2)C1 [Compound 12, {trans-3-(4-{[4-{[(2S)-2-(hydroxymethyl)pyrrolidin-1-yl]methyl}-6-(trifluoromethyl)pyridin-2-yl]oxy}piperidin-1-yl)-1-[4-(7H-pyrrolo[2,3-d]pyrimidin-4-yl)-1H-pyrazol-1-yl]cyclobutyl}acetonitrile] | >10 | > 8.00
12 | N#CC[C@]1(n2cc(-c3ncnc4[nH]ccc34)cn2)C[C@H](N2CCC(Oc3cc(CN4CCC[C@@H]4CO)cc(C(F)(F)F)n3)CC2)C1 [Compound 13, {trans-3-(4-{[4-{[(2R)-2-(hydroxymethyl)pyrrolidin-1-yl]methyl}-6-(trifluoromethyl)pyridin-2-yl]oxy}piperidin-1-yl)-1-[4-(7H-pyrrolo[2,3-d]pyrimidin-4-yl)-1H-pyrazol-1-yl]cyclobutyl}acetonitrile] | >10 | > 8.00
13 | C[C@H](NC(=O)c1cc(F)c(N2CC(CC#N)(n3cc(-c4ncnc5[nH]ccc45)cn3)C2)cc1F)C(F)(F)F [Compound 16, 4-{3-(cyanomethyl)-3-[4-(7H-pyrrolo[2,3-d]pyrimidin-4-yl)-1H-pyrazol-1-yl]azetidin-1-yl]-2,5-difluoro-N-[(1S)-2,2,2-trifluoro-1-methylethyl]benzamide] | >10 | > 8.00
14 | N#CCC1(n2cc(-c3ncnc4[nH]ccc34)cn2)CN([C@H]2CC[C@@H](Oc3cc(CCO)nc(C(F)(F)F)n3)CC2)C1 [Compound 18, {1-(cis-4-{[6-(2-hydroxyethyl)-2-(trifluoromethyl)pyrimidin-4-yl]oxy}cyclohexyl)-3-[4-(7H-pyrrolo[2,3-d]pyrimidin-4-yl)-1H-pyrazol-1-yl]azetidin-3-yl}acetonitrile] | >10 | > 8.00
15 | CCNCc1cc(O[C@H]2CC[C@@H](N3CC(CC#N)(n4cc(-c5ncnc6[nH]ccc56)cn4)C3)CC2)nc(C(F)(F)F)c1 [Compound 19, {1-(cis-4-{[4-[(ethylamino)methyl]-6-(trifluoromethyl)pyridin-2-yl]oxy}cyclohexyl)-3-[4-(7H-pyrrolo[2,3-d]pyrimidin-4-yl)-1H-pyrazol-1-yl]azetidin-3-yl}acetonitrile] | >10 | > 8.00
16 | CC(C)(O)c1cc(O[C@H]2CC[C@@H](N3CC(CC#N)(n4cc(-c5ncnc6[nH]ccc56)cn4)C3)CC2)nc(C(F)(F)F)c1 [Compound 20, {1-(cis-4-{[4-(1-hydroxy-1-methylethyl)-6-(trifluoromethyl)pyridin-2-yl]oxy]cyclohexyl)-3-[4-(7H-pyrrolo[2,3-d]pyrimidin-4-yl)-1H-pyrazol-1-yl]azetidin-3-yl}acetonitrile] | >10 | > 8.00
17 | N#CCC1(n2cc(-c3ncnc4[nH]ccc34)cn2)CN([C@H]2CC[C@@H](Oc3cc(CN4CC[C@@H](O)C4)cc(C(F)(F)F)n3)CC2)C1 [Compound 21, {1-(cis-4-{[4-{[(3R)-3-hydroxypyrrolidin-1-yl]methyl}-6-(trifluoromethyl)pyridin-2-yl]oxy}cyclohexyl)-3-[4-(7H-pyrrolo[2,3-d]pyrimidin-4-yl)-1H-pyrazol-1-yl]azetidin-3-yl}acetonitrile] | >10 | > 8.00
